According to US20080058421A1, “COMPOSITIONS FOR CLEANING AND DISINFECTING NASAL TRACT AND SINUS CAVITY” (priority 2006, published 2008):

Key:
Assay type in all cases: cell-based
[1] = test system: Escherichia coli ATCC 11229; experiment: A.O.A.C. sanitizer and germicidal detergent test
Text: (§1) The bacterial cultures were purchased from the American Type Culture Collection (ATCC), (Bethesda, Md.). Escherichia coli and Staphylococcus aureus are used to represent both gram-negative and gram-positive bacterial classes. This test is used by the US EPA for to determine compliance for a product to be used as a sanitizing agent. A product that reduces population density of both types of bacteria in 30 seconds by 99.999% satisfies the requirement as a sanitizing agent.

[2] = test system: Staphylococcus aureus ATCC 6538; experiment: A.O.A.C. sanitizer and germicidal detergent test
Text: as §1

[3] = test system: A. h. 7965 (Aeromonas hydrophila); experiment: modified A.O.A.C. germicidal and detergent sanitizer test
Description: (§2) The efficacy of the sanitizers in Examples 1, 2 and 3 was further evaluated with […] as controls against Salmonella typhimurium, Listeria monocytogenes, Aeromonas hydrophila, and Pseudomonas aeruginosa essentially by the modified detergent and germicidal sanitizer test of the A.O.A.C. The sanitizers were tested against both natural isolates and the antibiotic resistant strains of Listeria monocytogenes and Salmonella typhimurium. Each of the antibiotic resistant strains was used separately as well as in a composite strain prepared by mixing equal numbers of five different antibiotic resistant strains of Listeria monocytogenes or those of Salmonella typhimurium, respectively.

[4] = test system: L. m. 7644 (Listeria monocytogenes); experiment: as above
Description: as §2

[5] = test system: P. a. 10145 (Pseudomonas aeruginosa); experiment: as above
Description: as §2

[6] = test system: S. t. 7823 (Salmonella typhimurium); experiment: as above
Description: as §2

[7] = sanitizer criterion is 99.999% reduction in 30 seconds

Question: Which results are given for `OCl` [Hypochlorite]?
Answer: meets criterion of a sanitizer (99.999% reduction in 30 seconds) ([1]; Fifty ppm hypochlorite): meets the criterion of a sanitizer; % Kill E. coli [1, 7]: >99.999%; meets criterion of a sanitizer (99.999% reduction in 30 seconds) ([2]; Fifty ppm hypochlorite): meets the criterion of a sanitizer; % Kill Staph. aureus [2, 7]: >99.999%; % Kill ([3]; 30 seconds contact): >99.999%; % Kill ([3]; 60 seconds contact): >99.999%; % Kill ([4]; 30 seconds contact): >99.999%; % Kill ([4]; 60 seconds contact): >99.999%; % Kill ([5]; 30 seconds contact): >99.999%; % Kill ([5]; 60 seconds contact): >99.999%; % Kill ([6]; 30 seconds contact): <99.999%; Number of surviving bacteria/ml after contact, cfu/ml ([6]; 30 seconds contact, HOCL = 50 ppm, duplicate counts): T@, T@; % Kill ([6]; 60 seconds contact): >99.999%
